# ChEMBL document CHEMBL5532652, “Design and synthesis of pterostilbene derivatives bearing triazole moiety that might treat DSS-induced colitis in mice through modulation of NF-κB/MAPK signaling pathways” (Eur J Med Chem, 2024)
# Experiments:
# [1] = test system: RAW264.7; test: Cytotoxicity against mouse RAW264.7 cells assessed as reduction in cell viability at 20 uM incubated for 24 hrs by MTT assay; assay type: toxicity, cell-based; conditions: raw264.7, 24 h
# [2] = Cytotoxicity against mouse RAW264.7 cells assessed as reduction in cell viability at 20 uM incubated for 24 hrs in absence of LPS by MTT assay; assay type: toxicity, cell-based
# [3] = Cytotoxicity against mouse RAW264.7 cells assessed as reduction in cell viability at 20 uM incubated for 24 hrs in presence of LPS by MTT assay; assay type: toxicity, cell-based
# [4] = test system: RAW264.7; test: Anti-inflammatory activity in mouse RAW264.7 cells assessed as inhibition of LPS-induced NO production incubated pretreated with compound for 1 hr followed by LPS-induction and measured after 24 hrs by Griess reagent based assay; assay type: functional, cell-based
# [5] = test system: RAW264.7; test: Anti-inflammatory activity in mouse RAW264.7 cells assessed as inhibition of LPS-induced NO production at 10 uM incubated pretreated with compound for 1 hr followed by LPS-induction and measured after 24 hrs by Griess reagent based assay relative to control; assay type: functional; conditions: time 25 hrs
# [6] = Toxicity in C57BL/6 mouse assessed as body weight loss at 200 mg/kg, po measured for 7 days; assay type: organism-based; conditions: in vivo, 168 h, time 7 day
IC50 [4],SMILES,Activity [1],IC50 at 24 h [2],IC50 at 24 h [3],inhibition at 10 µM [5],Activity [6]
,COc1cc(/C=C/c2ccc(OCCc3ccccc3)cc2)c(-c2cnn[nH]2)c(OC)c1,Non-Toxic,,,,
10.4 µM,C=CCCOc1ccc(/C=C/c2cc(OC)cc(OC)c2-c2cnnn2C(=O)NCCCC)cc1,,> 50 µM,> 50 µM,50.6%,
8.16 µM,C=CCOc1ccc(/C=C/c2cc(OC)cc(OC)c2-c2cnnn2C(=O)NCC)cc1,,> 50 µM,> 50 µM,67.3%,
15.2 µM,C=C(C)COc1ccc(/C=C/c2cc(OC)cc(OC)c2-c2cnnn2C(=O)NCC)cc1,,> 50 µM,> 50 µM,43.6%,
,O=C(O)c1cc(/N=N/c2ccc(S(=O)(=O)Nc3ccccn3)cc2)ccc1O [SULFASALAZINE],,,,,Non-Toxic
2 µM,C=CCCCOc1ccc(/C=C/c2cc(OC)cc(OC)c2-c2cnnn2C(=O)NCCCl)cc1,,> 50 µM,> 50 µM,85.9%,
,COCCCCOc1ccc(/C=C/c2cc(OC)cc(OC)c2-c2cnn[nH]2)cc1,Non-Toxic,,,,
,COc1cc(/C=C/c2ccc(OCC3CC3)cc2)c(-c2cnn[nH]2)c(OC)c1,Non-Toxic,,,,
7.15 µM,C=C(C)COc1ccc(/C=C/c2cc(OC)cc(OC)c2-c2cnn[nH]2)cc1,Non-Toxic,> 50 µM,> 50 µM,74.2%,
,CCOCCOc1ccc(/C=C/c2cc(OC)cc(OC)c2-c2cnn[nH]2)cc1,Non-Toxic,,,,
14.4 µM,C=CCCOc1ccc(/C=C/c2cc(OC)cc(OC)c2-c2cnn[nH]2)cc1,Non-Toxic,> 50 µM,> 50 µM,46.9%,
7.91 µM,C=CCCOc1ccc(/C=C/c2cc(OC)cc(OC)c2-c2cnnn2C(=O)NC(C)C)cc1,,> 50 µM,> 50 µM,61.3%,
,COc1cc(/C=C/c2ccc(OC(=O)N(C)C)cc2)c(-c2cnn[nH]2)c(OC)c1,Non-Toxic,,,,
8 µM,C=CCOc1ccc(/C=C/c2cc(OC)cc(OC)c2-c2cnnn2C(=O)NC(C)C)cc1,,> 50 µM,> 50 µM,75%,
2.6 µM,C=CCOc1ccc(/C=C/c2cc(OC)cc(OC)c2-c2cnnn2C(=O)NCCC)cc1,,> 50 µM,> 50 µM,81.1%,
12.8 µM,C=C(C)COc1ccc(/C=C/c2cc(OC)cc(OC)c2-c2cnnn2C(=O)NCCCC)cc1,,> 50 µM,> 50 µM,54.6%,
,COc1cc(/C=C/c2ccc(OCC3CCCC3)cc2)c(-c2cnn[nH]2)c(OC)c1,Non-Toxic,,,,
9.83 µM,C=CCCCOc1ccc(/C=C/c2cc(OC)cc(OC)c2-c2cnnn2C(=O)NC(C)C)cc1,,> 50 µM,> 50 µM,53.4%,
14.9 µM,C=C(C)COc1ccc(/C=C/c2cc(OC)cc(OC)c2-c2cnnn2C(=O)NCCc2ccccc2)cc1,,> 50 µM,> 50 µM,42.6%,
6.2 µM,C=CCCCOc1ccc(/C=C/c2cc(OC)cc(OC)c2-c2cnnn2C(=O)NCCC)cc1,,> 50 µM,> 50 µM,55.5%,
3.15 µM,C=CCCOc1ccc(/C=C/c2cc(OC)cc(OC)c2-c2cnnn2C(=O)NCCC)cc1,,> 50 µM,> 50 µM,72.7%,

IC50 [4],SMILES,Activity [1],IC50 at 24 h [2],IC50 at 24 h [3],inhibition at 10 µM [5],Activity [6]
6.18 µM,C=CCCCOc1ccc(/C=C/c2cc(OC)cc(OC)c2-c2cnn[nH]2)cc1,Non-Toxic,> 50 µM,> 50 µM,62.2%,
8.66 µM,C=CCCCOc1ccc(/C=C/c2cc(OC)cc(OC)c2-c2cnnn2C(=O)NCCCC)cc1,,> 50 µM,> 50 µM,60%,
10.8 µM,C=CCOc1ccc(/C=C/c2cc(OC)cc(OC)c2-c2cnn[nH]2)cc1,Non-Toxic,> 50 µM,> 50 µM,53.7%,
16 µM,C=C(C)COc1ccc(/C=C/c2cc(OC)cc(OC)c2-c2cnnn2C(=O)NC(C)C)cc1,,> 50 µM,> 50 µM,48.2%,
6.5 µM,C=CCCCOc1ccc(/C=C/c2cc(OC)cc(OC)c2-c2cnnn2C(=O)NCCc2ccccc2)cc1,,> 50 µM,> 50 µM,67.8%,
,CCOC(=O)COc1ccc(/C=C/c2cc(OC)cc(OC)c2-c2cnn[nH]2)cc1,Non-Toxic,,,,
,CCCCOc1ccc(/C=C/c2cc(OC)cc(OC)c2-c2cnn[nH]2)cc1,Non-Toxic,,,,
,CCOc1ccc(/C=C/c2cc(OC)cc(OC)c2-c2cnn[nH]2)cc1,Non-Toxic,,,,
13.4 µM,C=CCCOc1ccc(/C=C/c2cc(OC)cc(OC)c2-c2cnnn2C(=O)NCC)cc1,,> 50 µM,> 50 µM,46.3%,
9.46 µM,C=CCCOc1ccc(/C=C/c2cc(OC)cc(OC)c2-c2cnnn2C(=O)NCCc2ccccc2)cc1,,> 50 µM,> 50 µM,64.6%,
,COc1ccc(/C=C/c2cc(OC)cc(OC)c2-c2cnn[nH]2)cc1,Non-Toxic,,,,
,COc1cc(/C=C/c2ccc(OCc3cc(F)cc(F)c3)cc2)c(-c2cnn[nH]2)c(OC)c1,Non-Toxic,,,,
,COc1cc(/C=C/c2ccc(OCc3ccc(Br)cc3)cc2)c(-c2cnn[nH]2)c(OC)c1,Non-Toxic,,,,
1.4 µM,C=CCCOc1ccc(/C=C/c2cc(OC)cc(OC)c2-c2cnnn2C(=O)NCCCl)cc1,,> 50 µM,> 50 µM,96.9%,
,COc1cc(/C=C/c2ccc(OCc3ccc(C)cc3)cc2)c(-c2cnn[nH]2)c(OC)c1,Non-Toxic,,,,
,COc1cc(/C=C/c2ccc(OCc3ccc(OC(F)(F)F)cc3)cc2)c(-c2cnn[nH]2)c(OC)c1,Non-Toxic,,,,
6.2 µM,C=C(C)COc1ccc(/C=C/c2cc(OC)cc(OC)c2-c2cnnn2C(=O)NCCC)cc1,,> 50 µM,> 50 µM,77.5%,
12.3 µM,C=CCCCOc1ccc(/C=C/c2cc(OC)cc(OC)c2-c2cnnn2C(=O)NCC)cc1,,> 50 µM,> 50 µM,49.6%,
14 µM,C=CCOc1ccc(/C=C/c2cc(OC)cc(OC)c2-c2cnnn2C(=O)NCCc2ccccc2)cc1,,> 50 µM,> 50 µM,45.3%,
11.7 µM,C=CCOc1ccc(/C=C/c2cc(OC)cc(OC)c2-c2cnnn2C(=O)NCCCC)cc1,,> 50 µM,> 50 µM,50%,
